# Read-outs that look alike come from different tables or passages of the source.
# How the values were obtained:
# [1] = Human pharmacokinetics of 3-aminopropyl-n-butyl-phosphinic acid (Gleitner 1); assay type: in vivo, Humans; settings: implied from urinary excretion after oral administration
# [2] = cited from earlier work; for dose-corrected AUC: read from FIG. 4 of Gleitner 1
# [3] = tested on: patients suffering from Mild Cognitive Impairment (MCI); settings: 600 mg tid; cited from earlier work
smiles,measurement,setting,value
CCCCP(=O)(O)CCCN [3-aminopropyl-n-butyl-phosphinic acid],absorption through the oral route,[1],38%
same,dose-corrected AUC,[2]; 600 mg dose,40 μmol·h/(L·mmol)
same,dose-corrected AUC,[2]; 2100 mg dose,20 μmol·h/(L·mmol)
same,reduction of drug systemic availability after food intake,[2]; after food intake,30%
same,cumulative urinary excretion rate,[2]; within 24 hours of i.v. administration,99.5+/−6.4 % of the dose
same,cumulative urinary excretion rate,[2]; within 24 hours of oral administration,38+/−13 % of the dose
same,cognition in patients with Mild Cognitive Impairment,[3],showed improvements in multiple cognitive domains
